Marks after values point to notes of the source that are not given here.
Tests used:
[1] = test system: BM of BALB/c mice after 7 Gy TBI; experiment: Femoral BM cellularity by histopathology; format: in vivo, mouse; conditions: D19 after 7 Gy
Description: (§1) Male BALB/c mice (Stock #028, Charles River, Wilmington, Mass.) were acclimated prior to irradiation at age 12 weeks. Studies were conducted in accordance with Dana-Farber Cancer Institute's ACUC-approved policies and protocols. Mice were placed into a Rad Disk™ rodent microisolation irradiation cage (Braintree Scientific, Braintree, Mass.) and administered a single 7 Gy dose by a Gammacell® 40Exactor (Best Theratronics, Ottawa, Ontario) cesium source irradiator. […]
A Board-certified hematopathologist (JK) assessed femoral BM cellularity on decalcified, formalin fixed, H&E stained paraffin-fixed sections using an Olympus BX51 microscope and an Olympus DP71 camera with DP Capture software. For each animal, 2 slides with 2 fields/slide were scored for the percent of BM space occupied by hematopoietic cells. […]

[2] = test system: BALB/c mice after 7 Gy TBI; experiment: Peripheral blood counts after TBI (CBC, Hemavet); format: in vivo, mouse; conditions: median; for WBC: treatment started 24 h after irradiation
Description: Male BALB/c mice (Stock #028, Charles River, Wilmington, Mass.) were acclimated prior to irradiation at age 12 weeks. Studies were conducted in accordance with Dana-Farber Cancer Institute's ACUC-approved policies and protocols. Mice were placed into a Rad Disk™ rodent microisolation irradiation cage (Braintree Scientific, Braintree, Mass.) and administered a single 7 Gy dose by a Gammacell® 40Exactor (Best Theratronics, Ottawa, Ontario) cesium source irradiator. […] Moribund mice were euthanized via CO, asphyxiation. At scheduled time points, mice were sacrificed humanely via isoflurane anesthetic overdose (IsoFlo®-Abbott Labs, Abbott Park, Ill.).
CBCs were performed on a Hemavet 950 FS hematology analyzer (Drew Scientific, Waterbury, Conn.) with EDTA-anticoagulated (Becton-Dickinson, Franklin Lakes, N.J.) cardiac blood. Plasma was obtained by mixing blood with pyrogen-free heparin (APP Pharmaceutical, Schaumburg, Ill.), in pyrogen-free Eppendorf tubes (USA Scientific) and centrifugation at 14,000 rpm for 10 minutes. Single use aliquots were stored at −80° C. In some studies, femurs and tibiae from one leg/animal were dissected, fixed for 24 hours in 10% neutral buffered formalin (Fisher Scientific, Pittsburgh, Pa.), and processed, including coronal sectioning and hematoxylin and eosin (H&E) staining (Specialized Histopathology Services-Longwood, Boston, Mass.). […] Red blood cells were lysed with hypotonic lysing buffer (Sigma).

[3] = test system: BALB/c mice after 7 Gy TBI; experiment: In vivo radiation mitigation: survival after 7 Gy TBI; set-up: species or system mouse; conditions: 7 Gy TBI (LD95/30), treatment initiated 24 hours after irradiation; Mantel-Cox log-rank
Description: as §1
For the human HSCT study, samples with undetectable analytes were assigned a value at half the lower limit of detection. For ANC, PLT, BPI, TLR4 and IL-6, data were analyzed after logarithmic transformation, as this yielded distributions that were more approximately normal. […] Comparisons between subjects with or without fever were evaluated using the Mann-Whitney test. When assessing correlations between different parameters, within-subject correlations were calculated using the Spearman correlation coefficient and data from multiple time-points. The calculated coefficients were averaged over the different subjects and significance tested with the signed rank test. […] Two tailed t tests (Mann-Whitney) are performed throughout except for citrulline data in which the data were analyzed by 1-sample t test as compared to theoretical mean of 100% and for hematologic analyses (Table 1) in which unpaired t tests were performed. […]

## CCN1CCN(c2cc3c(cc2F)c(=O)c(C(=O)O)cn3C2CC2)CC1 [ENR, enrofloxacin]
[1]
  BM cellularity: < 5%
[2]; D15 after 7 Gy TBI
  WBC: 0.24 ▴ K/μL
  Hb: 8.80 ▴ ▪ g/dL
  Monocytes: 0 ▴ ● K/μL
  Neutrophils: 0 ▴ ● K/μL
  PLT: 196 ▴ K/μL
[2]; D19 after 7 Gy TBI
  WBC: 0.21 ▴ K/μL
  Hb: 8.35 ▴ ▪ g/dL
  Monocytes: 0 ▴ ● ▪ K/μL
  Neutrophils: 0 ▴ ● ▪ K/μL
  PLT: 250.5 ▴ K/μL
[2]; D30 after 7 Gy TBI
  WBC: 1.84 ▴ ● K/μL
  Hb: 13.1 ▴ g/dL
  Monocytes: 0.14 ● K/μL
  Neutrophils: 0.55 ● K/μL
  PLT: 713.5 ▴ K/μL
[3]
  D30 survival: some survival benefit

— patent publication US9884089B2, “BPI and its congeners as radiation mitigators and radiation protectors” (Dana-Farber Cancer Institute, Inc., priority 2011, dated 2018)
